Key:
lambsquarters = experiment: Test B pre-/postemergence herbicide test; type: in vivo, Chenopodium album
In short: (§1)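 Formulation: non-phytotoxic solvent mix with surfactant. Timing: preemergence on seed and postemergence on 2–18 cm plants, applied concurrently. Readout after 13–15 d greenhouse: visual 0–100 control rating against controls.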

blackgrass = experiment: Test B postemergence herbicide test; type: in vivo, Alopecurus myosuroides; settings: scale 0 (no effect) to 100 (complete control)
In short: (§2)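 Visual control ratings, 0–100 versus untreated controls, taken after 13 to 15 days in the greenhouse. Blackgrass received a postemergence spray at the 1- to 4-leaf stage (2–18 cm); ducksalad, umbrella sedge and barnyardgrass were flooded-paddy treated at 2 leaves.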

ducksalad = experiment: Test B flooded paddy test; type: in vivo, Heteranthera limosa; settings: 1000 g ai/ha, visual rating, scale 0 to 100 (0 no effect, 100 complete control), 13 to 15 days
In short: as §2

barnyardgrass [1] = experiment: Test B pre-/postemergence herbicide test; type: in vivo, Echinochloa crus-galli
In short: (§3)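 Response was scored visually 13 to 15 days after treatment against untreated greenhouse controls, 0 meaning no effect and 100 complete control. Formulations (solvent mixture plus surfactant) went onto soil after planting, onto foliage of 1- to 4-leaf plants, and onto 2-leaf plants in a flooded paddy set including rice and barnyardgrass.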

[2] = tested on: small flower umbrella sedge; experiment: Test B flooded paddy test; type: in vivo, Cyperus difformis; settings: 1000 g ai/ha, visual rating, scale 0 to 100 (0 no effect, 100 complete control), 13 to 15 days
In short: as §2

morningglory = experiment: Test B pre-/postemergence herbicide test; type: in vivo, Ipomoea coccinea
In short: as §3

giant foxtail = experiment: Test B pre-/postemergence herbicide test; type: in vivo, Setaria faberi
In short: as §1

large crabgrass = experiment: Test B pre-/postemergence herbicide test; type: in vivo, Digitaria sanguinalis
In short: as §1

wheat = experiment: Test B postemergence herbicide test; type: in vivo, Triticum aestivum; set-up: key to Wheat plant response rating: 0 = no effect, 100 = complete control; settings: scale 0 (no effect) to 100 (complete control)
In short: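 Treated at 2-leaf (paddy) or 1–4-leaf, 2–18 cm (postemergence); greenhouse 13–15 d; visual score vs control, 0 none to 100 complete control; dash = not tested.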

velvetleaf = experiment: Test B pre-/postemergence herbicide test; type: in vivo, Abutilon theophrasti
In short: as §1

Surinam grass = experiment: Test B pre-/postemergence herbicide test; type: in vivo, Urochloa decumbens
In short: as §1

rice = experiment: Test B flooded paddy test; type: in vivo, Oryza sativa; settings: 1000 g ai/ha, visual rating, scale 0 to 100 (0 no effect, 100 complete control), 13 to 15 days
In short: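 Scale 0–100: zero equals no visible effect, 100 complete control, judged by eye relative to controls. Timing: 13 to 15 days in greenhouse post-treatment. Growth stage at spraying: two leaves (paddy) or one to four leaves, 2–18 cm (postemergence).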

corn = experiment: Test B pre-/postemergence herbicide test; type: in vivo, Zea mays
In short: as §1

cocklebur = experiment: Test B pre-/postemergence herbicide test; type: in vivo, Xanthium strumarium
In short: as §3

barnyardgrass [3] = experiment: Test B flooded paddy test; type: in vivo, Echinochloa crus-galli; settings: 1000 g ai/ha, visual rating, scale 0 to 100 (0 no effect, 100 complete control), 13 to 15 days
In short: as §2

[4] = Postemergence, 500 g ai/ha, visual rating after 13 to 15 days, scale 0 (no effect) to 100 (complete control)
[5] = Preemergence, 500 g ai/ha, scale 0 to 100
[6] = postemergence, 125 g ai/ha, visual rating, scale 0 (no effect) to 100 (complete control)
[7] = preemergence, 125 g ai/ha, 0 to 100 scale, 0 is no effect, 100 is complete control
[8] = Postemergence, 500 g ai/ha, visual rating after 13 to 15 days
[9] = postemergence, 125 g ai/ha, visual rating

Compound: CCCn1nc(C(C)(C)C)cc1C(=O)Nc1cccc(C(=O)NCC)c1 [Compound 57]
- Plant response rating, Lambsquarters (lambsquarters; [4]): 90
- Lambsquarters plant response rating (lambsquarters; [5]): 100
- Lambsquarters plant response rating (lambsquarters; [6]): 70
- Plant response rating, Lambsquarters (lambsquarters; [7]): 100
- Plant response rating, Blackgrass (blackgrass; [8]): 10
- Blackgrass plant response rating (blackgrass; [9]): 0
- Ducksalad plant response rating (ducksalad): 50
- Plant response rating, Barnyardgrass (barnyardgrass [1]; [4]): 20
- Barnyardgrass plant response rating (barnyardgrass [1]; [5]): 70
- Barnyardgrass plant response rating (barnyardgrass [1]; [6]): 10
- Plant response rating, Barnyardgrass (barnyardgrass [1]; [7]): 50
- Sedge, Umbrella plant response rating [2]: 60
- Plant response rating, Morningglory (morningglory; [4]): 10
- Morningglory plant response rating (morningglory; [5]): 0
- Morningglory plant response rating (morningglory; [6]): 10
- Plant response rating, Morningglory (morningglory; [7]): 0
- Plant response rating, Foxtail, Giant (giant foxtail; [4]): 30
- Foxtail, Giant plant response rating (giant foxtail; [5]): 100
- Foxtail, Giant plant response rating (giant foxtail; [6]): 20
- Plant response rating, Foxtail, Giant (giant foxtail; [7]): 20
- Plant response rating, Crabgrass, Large (large crabgrass; [4]): 20
- Crabgrass, Large plant response rating (large crabgrass; [5]): 100
- Crabgrass, Large plant response rating (large crabgrass; [6]): 10
- Plant response rating, Crabgrass, Large (large crabgrass; [7]): 40
- Plant response rating, Wheat (wheat; [8]): 10
- Wheat plant response rating (wheat; [9]): 10
- Plant response rating, Velvetleaf (velvetleaf; [4]): 30
- Velvetleaf plant response rating (velvetleaf; [5]): 0
- Velvetleaf plant response rating (velvetleaf; [6]): 20
- Plant response rating, Velvetleaf (velvetleaf; [7]): 0
- Plant response rating, Surinam Grass (Surinam grass; [4]): 20
- Surinam Grass plant response rating (Surinam grass; [5]): 40
- Surinam Grass plant response rating (Surinam grass; [6]): 10
- Plant response rating, Surinam Grass (Surinam grass; [7]): 20
- Rice plant response rating (rice): 60
- Plant response rating, Corn (corn; [4]): 20
- Corn plant response rating (corn; [5]): 0
- Corn plant response rating (corn; [6]): 20
- Plant response rating, Corn (corn; [7]): 0
- Plant response rating, Cocklebur (cocklebur; [4]): 60
- Cocklebur plant response rating (cocklebur; [5]): 10
- Cocklebur plant response rating (cocklebur; [6]): 30
- Plant response rating, Cocklebur (cocklebur; [7]): 0
- Barnyardgrass plant response rating (barnyardgrass [3]): 60

— US20060069132A1, “Azolecarboxamide herbicides” (priority 2004, published 2006)
